According to patent publication US9399145B2, “Nanoscale neuromodulating platform for retina neuron activation apparatus and method” (The Board of Trustees of the University of Illinois, priority 2005, dated 2016):

Tests used:
[1] = target: T1, α1β2γ2 GABAARs (rat α1, rat β2 and human γ2S) (UniProt P18507+P62813+P63138); test: Two-electrode voltage clamp of α1β2γ2 GABAAR-expressing Xenopus oocytes; format: cell-based
T1 construct: expressed in transfected cells; host or cells: Xenopus laevis oocytes
Text: Purple and gray bars indicate periods of presentation of UV light (purple) and high-intensity visible light (High-Vis) (gray), respectively. […] These amplitude determination conditions are denoted by numbers beneath the waveform in FIG. 35d.
In each of the MPC088 experiments, the cis-dominant form was generated by UV light during static bathing. […] Numbers beneath the waveform in FIG. 2(c) denote amplitude determination conditions for that experiment.
Oocytes expressing α1β2γ2 receptors (rat α1, rat β2 and human γ2S) were prepared and studied by two-electrode voltage-clamp recording^58 (holding potential: −70 mV; amplifier: GeneClamp500B; Axon Instruments, Foster City, Calif.). Unless otherwise indicated, oocytes were superfused with Ringer solution (physiological saline) at a rate of ˜1 mL/min. The experiments of FIGS. 35d-e, 36c-e and 47 involved periods of static bathing, i.e., halted superfusion. The γ2(A79C) subunit was prepared by site-directed mutagenesis. Oocyte electrophysiological experiments were carried out in room light. A UV light-emitting diode (peak wavelength: 365 nm; Hamamatsu Photonics, Japan) and a microscope illuminator (white light; Schott Fostec, Auburn, N.Y.) provided UV and visible stimulating light. As measured at the position of the oocyte, the intensity of the UV light at 365 nm was 220 μW/mm^2. At 440 nm, the nominal strength of the visible (white) light (referred to as high-intensity visible light) was 28 μW/mm^2, and that of the ambient room illumination was 0.045 μW/mm^2. In all experiments, low-intensity visible light from the microscope illuminator (3 μW/mm^2 at 440 nm) was present at all times except those involving high-intensity visible illumination. Electrophysiological data were obtained using Clampex 8.2 (Axon Instruments), analyzed using Clampfit 10.0 (Axon Instruments) and OriginPro7.5 (OriginLab, Northampton, Mass.). All statistical analysis employed a two-sample t-test.

Hydrophobicity (log P) = format: physicochemical
[2] = tested on: GABAARs of cerebellar PNs; test: Whole-cell voltage clamp of cerebellar Purkinje neurons in slices, GABA-evoked currents with UV/blue light; format: cell-based, mouse; settings: 10 μM GABA plus 300 μM propofol
α4β3δ GABAAR = target: T2, α4β3δ GABAAR (Homo sapiens, UniProt P28472+P48169); test: Two-electrode voltage clamp of α4β3δ GABAAR-expressing oocytes; format: cell-based; settings: 200 μM propofol and 50 nM GABA
T2 construct: expressed in transfected cells; host or cells: Xenopus oocytes
Text: Propofol is known to modulate GABAA receptors that contain a β subunit. […] Data in each group was obtained from 4 oocytes.

α1β2γ2 GABAARs = target: T3, α1β2γ2 GABAARs (UniProt P18507+P62813+P63138); format: binding; settings: 1 μM competitor added to 10 μM 23 and 3 μM GABA
T3 construct: expressed in transfected cells; host or cells: Xenopus laevis oocytes
Text: Tomlinson and Rosenthal, the linear chain of 22 is further extended by an amide-linked PEG5000 that is terminated by biotin. […] Bright-field images of the (opaque) oocytes illustrate the focus of the oocyte border during fluorescence microscopy.

[3] = tested on: GABAARs of cerebellar PNs; test: Test for direct agonist activity on Purkinje neurons (recirculating MPC088, no exogenous GABA); format: cell-based, mouse; settings: 30 μM gabazine added to 30 μM MPC088
Description: To test for direct agonist activity of MPC088 on PNs, cerebellar slices were perfused with recirculating 30 μM MPC088 (the maximal MPC088 concentration that could be reliably maintained solubilized in bicarbonate-buffered solution). MPC088 was converted to cis-dominant form by a 2-min exposure to UV light (LED, 365 nm/160 mW, Mouser, Inc., Mansfield, Tex.; LED driver, 700 mA BuckPuck DC Driver, Quadica Developments, Inc., Brantford, Ontario, Canada), before its dilution into the recirculating external solution. The same LED was then used to continuously UV-illuminate the recirculating solution for the duration of the experiment. Whole-cell voltage clamp recordings were obtained from PNs and determined the change in membrane current produced by alternating blue and UV illumination of the slice, as in the FIG. 40 experiments. […] The temporal sequence of illumination differed among the experiments (e.g., only the cell in a received multiple blue/UV exposures), but the data plotted are the amplitudes from the blue to UV transition (in the case of the cell in a, this is the blue/UV transition from the first of the three exposures). Yellow-filled data points indicate results from the experiment in a. Each data point is the average obtained from 4-10 consecutive recordings. […] Error bars represent the SEM (FIG. 42b).

CC(C)c1cccc(C(C)C)c1O [propofol, reference compound]
maximum current of direct activation relative to the 100 μM GABA response [1]: about 40% | logP (Hydrophobicity (log P)): ~4 | light-induced current change [2]: little or no light-induced current change | response relative to the saturating GABA-alone response (α4β3δ GABAAR): 1.2±0.1 fold

CN1C(=O)CN=C(c2ccccc2)c2cc(Cl)ccc21 [diazepam, reference compound]
potentiation factor of the 3 μM GABA response [1]: 1.92±0.36 | effect on fluorescent border from binding of 23 (competition) (α1β2γ2 GABAARs): virtually eliminated

COc1ccc(-c2ccc(=N)n(CCCC(=O)O)n2)cc1 [gabazine, reference compound]
effect of antagonist on the MPC088-elicited response ([1]; picrotoxin 100 μg, gabazine 30 μg, bicuculline 100 μM (so in the source)): not sensitive | average current remaining relative to the pre-gabazine current [3]: 11±3%
